Columns and labels:
[1] = target: Human thrombin (Homo sapiens (Human), UniProt P00734); assay: Thrombin protease activity inhibition assay (chromogenic substrate S-2238); type: biochemical; conditions: 3 nM thrombin, 125 μM S-2238, 10 min pre-incubation, RT
Summary of the method: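 Ten-point, three-fold serial dilutions of compound tested against 3 nM enzyme at RT in Tris buffer (0.05 M, pH 7.4) with 0.015 M NaCl and 0.01% PEG-8000.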

[2] = target: Human KLKB1 (Homo sapiens (Human), UniProt P03952); assay: KLKB1 kallikrein activity inhibition assay (chromogenic substrate S-2302); type: biochemical; conditions: Table B
Human KLKB1, sequence (P03952 391-638 limits assumed): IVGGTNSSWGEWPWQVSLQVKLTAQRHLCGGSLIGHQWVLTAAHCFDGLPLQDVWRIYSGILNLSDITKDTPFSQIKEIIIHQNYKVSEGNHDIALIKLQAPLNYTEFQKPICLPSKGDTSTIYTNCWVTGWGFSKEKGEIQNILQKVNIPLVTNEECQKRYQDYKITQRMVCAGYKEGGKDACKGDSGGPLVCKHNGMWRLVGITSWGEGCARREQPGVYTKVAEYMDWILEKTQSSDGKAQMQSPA
Human KLKB1, sequence (P03952 20-390 partner limits assumed): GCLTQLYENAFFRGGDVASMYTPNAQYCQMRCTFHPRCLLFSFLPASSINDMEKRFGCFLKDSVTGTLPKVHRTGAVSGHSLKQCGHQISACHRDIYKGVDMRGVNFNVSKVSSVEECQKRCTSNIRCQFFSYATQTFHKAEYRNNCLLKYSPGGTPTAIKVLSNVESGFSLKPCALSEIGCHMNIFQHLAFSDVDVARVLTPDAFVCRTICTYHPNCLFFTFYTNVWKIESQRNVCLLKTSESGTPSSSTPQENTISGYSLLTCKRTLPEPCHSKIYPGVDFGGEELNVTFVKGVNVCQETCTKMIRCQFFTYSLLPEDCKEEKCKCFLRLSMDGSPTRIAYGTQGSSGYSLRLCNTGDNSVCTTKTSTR
Summary of the method: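 Enzyme at a final 3 nM was assayed in 0.05 M Tris pH 7.4, 0.01 M NaCl and 0.2% PEG-8000 at room temperature, with compounds as ten-point threefold dilutions.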

| SMILES | IC50 [1] | IC50 [2] |
| --- | --- | --- |
| O=C(c1cccs1)n1nc(-c2cccn(Cc3ccccc3)c2=O)cc1NCc1ccc(Cl)s1 [Cmpd 51, 1-benzyl-3-(5-[(5-chlorothiophen-2-yl)methyl]amino-1-[(thiophen-2-yl)carbonyl]-1H-pyrazol-3-yl)-1,2-dihydropyridin-2-one] | < 100 nM | > 100 µM |
| O=C(c1ccco1)n1nc(-c2cccn(Cc3ccccn3)c2=O)cc1NCc1ccccc1 [Cmpd 238, 3-[5-(benzylamino)-1-[(furan-2-yl)carbonyl]-1H-pyrazol-3-yl]-1-(pyridin-2-ylmethyl)-1,2-dihydropyridin-2-one] | < 100 nM | 1 to 10 µM |
| COCCn1cccc(-c2cc(NCc3ccc(Cl)s3)n(C(=O)c3cccc4c3OCCO4)n2)c1=O [Cmpd 109, 3-(5-[(5-chlorothiophen-2-yl)methyl]amino-1-[(2,3-dihydro-1,4-benzodioxin-5-yl)carbonyl]-1H-pyrazol-3-yl)-1-(2-methoxyethyl)-1,2-dihydropyridin-2-one] | < 100 nM | 1 to 10 µM |
| CC(C)(C)C(=O)n1nc(-c2cccn(Cc3ccco3)c2=O)cc1NCc1ccc(Cl)s1 [Cmpd 77, 3-(5-[(5-chlorothiophen-2-yl)methyl]amino-1-(2,2-dimethylpropanoyl)-1H-pyrazol-3-yl)-1-(furan-2-ylmethyl)-1,2-dihydropyridin-2-one] | < 100 nM | > 100 µM |
| COCC(C)(C)C(=O)n1nc(-c2cccn(Cc3cccnn3)c2=O)cc1NCc1ccc(Cl)s1 [Cmpd 100, 3-(5-[(5-chlorothiophen-2-yl)methyl]amino-1-(3-methoxy-2,2-dimethylpropanoyl)-1H-pyrazol-3-yl)-1-(pyridazin-3-ylmethyl)-1,2-dihydropyridin-2-one] | < 100 nM | 1 to 10 µM |
| Cn1cccc(-c2cc(NCc3ccc(Cl)s3)n(C(=O)C3(COC(=O)C4(CO)CC4)CC3)n2)c1=O [Cmpd 265, 1-[(5-[(5-chlorothiophen-2-yl)methyl]amino-3-(1-methyl-2-oxo-1,2-dihydropyridin-3-yl)-1H-pyrazol-1-yl)carbonyl]cyclopropylmethyl 1-(hydroxymethyl)cyclopropane-1-carboxylate] | < 100 nM | 1 to 10 µM |
| O=C(c1ccco1)n1nc(-c2ccc[nH]c2=O)cc1NCc1ccccc1 [Cmpd 237, 3-[5-(benzylamino)-1-[(furan-2-yl)carbonyl]-1H-pyrazol-3-yl]-1,2-dihydropyridin-2-one] | 100 to 1000 nM | 10 to 100 µM |
| O=C(c1ccsc1)n1nc(-c2cccn(Cc3ncccn3)c2=O)cc1NCc1ccc(Cl)s1 [Cmpd 201, 3-(5-[(5-chlorothiophen-2-yl)methyl]amino-1-[(thiophen-3-yl)carbonyl]-1H-pyrazol-3-yl)-1-(pyrimidin-2-ylmethyl)-1,2-dihydropyridin-2-one] | < 100 nM | 0.1 to 1 µM |
| O=C(c1cccc2c1OCCO2)n1nc(-c2cccn(Cc3cccs3)c2=O)cc1NCc1ccc(Cl)s1 [Cmpd 117, 3-(5-[(5-chlorothiophen-2-yl)methyl]amino-1-[(2,3-dihydro-1,4-benzodioxin-5-yl)carbonyl]-1H-pyrazol-3-yl)-1-(thiophen-2-ylmethyl)-1,2-dihydropyridin-2-one] | < 100 nM | > 100 µM |
| CC1(C(=O)n2nc(-c3cccn(Cc4ccccc4)c3=O)cc2NCc2ccc(Cl)s2)CCOCC1 [Cmpd 48, 1-benzyl-3-(5-[(5-chlorothiophen-2-yl)methyl]amino-1-[(4-methyloxan-4-yl)carbonyl]-1H-pyrazol-3-yl)-1,2-dihydropyridin-2-one] | < 100 nM | > 100 µM |
| O=c1c(-c2cc(NCc3ccc(Cl)s3)[nH]n2)cccn1Cc1ccccn1 [Cmpd 227, 3-(5-[(5-chlorothiophen-2-yl)methyl]amino-1H-pyrazol-3-yl)-1-(pyridin-2-ylmethyl)-1,2-dihydropyridin-2-one] | 1000 to 10000 nM | > 100 µM |
| COCCn1cccc(-c2cc(NCc3ccc(Cl)s3)n(C(=O)c3cccs3)n2)c1=O [Cmpd 182, 3-(5-[(5-chlorothiophen-2-yl)methyl]amino-1-[(thiophen-2-yl)carbonyl]-1H-pyrazol-3-yl)-1-(2-methoxyethyl)-1,2-dihydropyridin-2-one] | < 100 nM | 1 to 10 µM |
| COCC(C)(C)C(=O)n1nc(-c2cccn(Cc3cccs3)c2=O)cc1NCc1ccc(Cl)s1 [Cmpd 105, 3-(5-[(5-chlorothiophen-2-yl)methyl]amino-1-(3-methoxy-2,2-dimethylpropanoyl)-1H-pyrazol-3-yl)-1-(thiophen-2-ylmethyl)-1,2-dihydropyridin-2-one] | < 100 nM | > 100 µM |
| CC1(C(=O)n2nc(-c3cccn(Cc4cccs4)c3=O)cc2NCc2ccc(Cl)s2)CCOCC1 [Cmpd 157, 3-(5-[(5-chlorothiophen-2-yl)methyl]amino-1-[(4-methyloxan-4-yl)carbonyl]-1H-pyrazol-3-yl)-1-(thiophen-2-ylmethyl)-1,2-dihydropyridin-2-one] | < 100 nM | > 100 µM |
| COCC(C)(C)C(=O)n1nc(-c2cccn(Cc3ccccn3)c2=O)cc1NCc1ccc(Cl)s1 [Cmpd 101, 3-(5-[(5-chlorothiophen-2-yl)methyl]amino-1-(3-methoxy-2,2-dimethylpropanoyl)-1H-pyrazol-3-yl)-1-(pyridin-2-ylmethyl)-1,2-dihydropyridin-2-one] | < 100 nM | 10 to 100 µM |
| COCCn1cccc(-c2cc(NCc3ccc(Cl)s3)n(C(=O)c3ccc(OC)cc3OC)n2)c1=O [Cmpd 122, 3-(5-[(5-chlorothiophen-2-yl)methyl]amino-1-[(2,4-dimethoxyphenyl)carbonyl]-1H-pyrazol-3-yl)-1-(2-methoxyethyl)-1,2-dihydropyridin-2-one] | < 100 nM | 1 to 10 µM |
| COCCn1cccc(-c2cc(NCc3ccc(Cl)s3)n(C(=O)c3ccsc3)n2)c1=O [Cmpd 194, 3-(5-[(5-chlorothiophen-2-yl)methyl]amino-1-[(thiophen-3-yl)carbonyl]-1H-pyrazol-3-yl)-1-(2-methoxyethyl)-1,2-dihydropyridin-2-one] | < 100 nM | 0.1 to 1 µM |
| O=c1c(-c2cc(NCc3ccc(Cl)s3)[nH]n2)cccn1Cc1ccncc1 [Cmpd 229, 3-(5-[(5-chlorothiophen-2-yl)methyl]amino-1H-pyrazol-3-yl)-1-(pyridin-4-ylmethyl)-1,2-dihydropyridin-2-one] | 1000 to 10000 nM | > 100 µM |

Further lines, results first:

| IC50 [1] | IC50 [2] | SMILES |
| --- | --- | --- |
| < 100 nM | 1 to 10 µM | O=C(c1ccoc1)n1nc(-c2cccn(Cc3cccs3)c2=O)cc1NCc1ccc(Cl)s1 [Cmpd 5, 3-(5-[(5-chlorothiophen-2-yl)methyl]amino-1-[(furan-3-yl)carbonyl]-1H-pyrazol-3-yl)-1-(thiophen-2-ylmethyl)-1,2-dihydropyridin-2-one] |
| < 100 nM | 0.1 to 1 µM | O=C(c1ccco1)n1nc(-c2cccn(Cc3ccccc3)c2=O)cc1NCc1ccc(Cl)s1 [Cmpd 49, 1-benzyl-3-(5-[(5-chlorothiophen-2-yl)methyl]amino-1-[(furan-2-yl)carbonyl]-1H-pyrazol-3-yl)-1,2-dihydropyridin-2-one] |
| < 100 nM | 10 to 100 µM | O=C(c1ccc(N2CCOCC2)cc1)n1nc(-c2cccn(Cc3ccoc3)c2=O)cc1NCc1ccc(Cl)s1 [Cmpd 210, 3-(5-[(5-chlorothiophen-2-yl)methyl]amino-1-[4-(morpholin-4-yl)phenyl]carbonyl-1H-pyrazol-3-yl)-1-(furan-3-ylmethyl)-1,2-dihydropyridin-2-one] |
| < 100 nM | 0.1 to 1 µM | COc1ccccc1C(=O)n1nc(-c2cccn(Cc3cccnc3)c2=O)cc1NCc1ccc(Cl)s1 [Cmpd 140, 3-(5-[(5-chlorothiophen-2-yl)methyl]amino-1-[(2-methoxyphenyl)carbonyl]-1H-pyrazol-3-yl)-1-(pyridin-3-ylmethyl)-1,2-dihydropyridin-2-one] |
| < 100 nM | 0.1 to 1 µM | O=C(c1ccsc1)n1nc(-c2cccn(Cc3ccsc3)c2=O)cc1NCc1ccc(Cl)s1 [Cmpd 203, 3-(5-[(5-chlorothiophen-2-yl)methyl]amino-1-[(thiophen-3-yl)carbonyl]-1H-pyrazol-3-yl)-1-(thiophen-3-ylmethyl)-1,2-dihydropyridin-2-one] |
| < 100 nM | 0.1 to 1 µM | O=C(c1ccsc1)n1nc(-c2cccn(Cc3ccccc3)c2=O)cc1NCc1ccc(Cl)s1 [Cmpd 52, 1-benzyl-3-(5-[(5-chlorothiophen-2-yl)methyl]amino-1-[(thiophen-3-yl)carbonyl]-1H-pyrazol-3-yl)-1,2-dihydropyridin-2-one] |
| < 100 nM | 10 to 100 µM | O=C(c1ccoc1)n1nc(-c2cccn(Cc3ccsc3)c2=O)cc1NCc1ccc(Cl)s1 [Cmpd 179, 3-(5-[(5-chlorothiophen-2-yl)methyl]amino-1-[(furan-3-yl)carbonyl]-1H-pyrazol-3-yl)-1-(thiophen-3-ylmethyl)-1,2-dihydropyridin-2-one] |
| < 100 nM | 10 to 100 µM | O=C(c1cccs1)n1nc(-c2cccn(Cc3ccoc3)c2=O)cc1NCc1ccc(Cl)s1 [Cmpd 184, 3-(5-[(5-chlorothiophen-2-yl)methyl]amino-1-[(thiophen-2-yl)carbonyl]-1H-pyrazol-3-yl)-1-(furan-3-ylmethyl)-1,2-dihydropyridin-2-one] |
| < 100 nM | 0.1 to 1 µM | COc1ccc(C(=O)n2nc(-c3cccn(CCN4CCOCC4)c3=O)cc2NCc2ccc(Cl)s2)c(OC)c1 [Cmpd 131, 3-(5-[(5-chlorothiophen-2-yl)methyl]amino-1-[(2,4-dimethoxyphenyl)carbonyl]-1H-pyrazol-3-yl)-1-[2-(morpholin-4-yl)ethyl]-1,2-dihydropyridin-2-one] |
| < 100 nM | 0.1 to 1 µM | O=C(c1ccsc1)n1nc(-c2cccn(Cc3ccoc3)c2=O)cc1NCc1ccc(Cl)s1 [Cmpd 196, 3-(5-[(5-chlorothiophen-2-yl)methyl]amino-1-[(thiophen-3-yl)carbonyl]-1H-pyrazol-3-yl)-1-(furan-3-ylmethyl)-1,2-dihydropyridin-2-one] |
